Experimental data from patent publication US20090311217A1, “3-SUBSTITUTED-1H-INDOLE COMPOUNDS, THEIR USE AS MTOR KINASE AND PI3 KINASE INHIBITORS, AND THEIR SYNTHESES” (priority 2008, published 2009).
pIC50: −log10 of the molar value.

Target: PI3K-alpha (Homo sapiens, UniProt P42336)
Assay: PI3K-alpha fluorescence polarization assay
Assay type: biochemical
Details: PI3Kα Avg. IC50

Sequence of PI3K-alpha (P42336 whole entry, species assumed): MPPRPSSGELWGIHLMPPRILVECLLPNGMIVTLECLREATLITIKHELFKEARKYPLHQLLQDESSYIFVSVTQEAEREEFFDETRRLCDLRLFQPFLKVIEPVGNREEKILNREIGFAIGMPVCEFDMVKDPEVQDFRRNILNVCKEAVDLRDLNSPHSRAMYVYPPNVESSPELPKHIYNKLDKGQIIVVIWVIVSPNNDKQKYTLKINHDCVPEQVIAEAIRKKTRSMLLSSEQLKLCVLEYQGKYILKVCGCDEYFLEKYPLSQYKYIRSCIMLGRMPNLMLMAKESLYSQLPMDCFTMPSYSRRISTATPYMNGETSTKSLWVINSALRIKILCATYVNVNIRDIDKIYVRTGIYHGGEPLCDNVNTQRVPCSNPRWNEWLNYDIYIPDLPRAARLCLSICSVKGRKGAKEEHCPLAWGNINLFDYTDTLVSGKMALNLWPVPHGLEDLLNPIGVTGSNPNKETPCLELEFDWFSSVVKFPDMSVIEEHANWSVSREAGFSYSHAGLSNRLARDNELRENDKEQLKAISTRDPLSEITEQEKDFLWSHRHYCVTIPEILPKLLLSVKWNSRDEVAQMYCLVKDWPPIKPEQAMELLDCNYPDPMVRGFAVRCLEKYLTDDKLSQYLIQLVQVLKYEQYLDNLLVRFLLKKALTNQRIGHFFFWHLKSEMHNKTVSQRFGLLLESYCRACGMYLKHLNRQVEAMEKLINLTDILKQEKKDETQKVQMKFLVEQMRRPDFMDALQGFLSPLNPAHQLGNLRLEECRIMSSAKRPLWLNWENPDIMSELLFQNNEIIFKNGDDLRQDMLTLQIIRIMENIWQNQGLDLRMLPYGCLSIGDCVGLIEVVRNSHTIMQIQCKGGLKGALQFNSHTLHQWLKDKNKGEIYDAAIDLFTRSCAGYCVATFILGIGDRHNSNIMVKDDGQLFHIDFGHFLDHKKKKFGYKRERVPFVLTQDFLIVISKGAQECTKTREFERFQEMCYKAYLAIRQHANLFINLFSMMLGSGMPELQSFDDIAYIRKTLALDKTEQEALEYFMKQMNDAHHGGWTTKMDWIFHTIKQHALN
Sequence of PI3K-alpha (P27986 whole entry partner, species assumed): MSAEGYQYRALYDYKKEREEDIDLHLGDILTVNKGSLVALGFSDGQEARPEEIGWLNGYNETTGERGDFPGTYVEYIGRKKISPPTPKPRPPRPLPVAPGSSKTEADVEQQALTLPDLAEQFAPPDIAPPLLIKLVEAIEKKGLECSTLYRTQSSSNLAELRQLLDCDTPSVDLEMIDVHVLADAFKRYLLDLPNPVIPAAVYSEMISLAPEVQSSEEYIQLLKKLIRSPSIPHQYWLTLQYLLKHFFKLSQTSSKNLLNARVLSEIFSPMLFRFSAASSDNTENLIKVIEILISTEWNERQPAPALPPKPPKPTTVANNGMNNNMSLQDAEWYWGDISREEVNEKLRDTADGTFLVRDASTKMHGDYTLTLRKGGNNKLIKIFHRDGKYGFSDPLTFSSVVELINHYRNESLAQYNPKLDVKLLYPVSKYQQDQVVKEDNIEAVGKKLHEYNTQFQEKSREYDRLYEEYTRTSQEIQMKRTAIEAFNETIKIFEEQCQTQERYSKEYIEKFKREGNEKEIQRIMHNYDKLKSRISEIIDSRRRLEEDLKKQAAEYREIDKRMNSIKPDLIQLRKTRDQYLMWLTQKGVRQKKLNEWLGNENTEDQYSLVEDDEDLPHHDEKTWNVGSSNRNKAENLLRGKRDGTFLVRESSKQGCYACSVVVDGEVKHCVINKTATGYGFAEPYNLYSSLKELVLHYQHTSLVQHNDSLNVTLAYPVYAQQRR

Compound | pIC50
CNC(=O)Oc1ccc2c(c1)C(=O)/C(=C/c1cn(CCN3CCN(C)CC3)c3ccc(OC)cc13)O2 [Compound 546, (2Z)-2-({5-methoxy-1-[2-(4-methylpiperazin-1-yl)ethyl]-1H-indol-3-yl}methylene)-3-oxo-2,3-dihydro-1-benzofuran-5-yl methylcarbamate] | 6.20
COc1ccc2c(c1)c(/C=C1\Oc3cc(OC(=O)N(C)c4ccccc4)ccc3C1=O)c(C)n2CCN1CCN(C)CC1 [Compound 558, (2Z)-2-({5-methoxy-2-methyl-1-[2-(4-methylpiperazin-1-yl)ethyl]-1H-indol-3-yl}methylene)-3-oxo-2,3-dihydro-1-benzofuran-6-yl methyl(phenyl)carbamate] | < 5.00

Same assay, conditions: read-out: PI3Kα Avg. IC50

Compound | pIC50
COc1ccc2c(c1)c(/C=C1\Oc3ccc(Br)cc3C1=O)cn2CCCN(C)C [Compound 516, (2Z)-5-bromo-2-({1-[3-(dimethylamino)propyl]-5-methoxy-1H-indol-3-yl}methylene)-1-benzofuran-3(2H)-one] | 5.01
O=C1C(=Cc2c[nH]c3ccccc23)Oc2ccccc21 [Example 1, 2-(1H-indol-3-ylmethylene)-1-benzofuran-3(2H)-one] | < 5.00
Cn1c(-c2ccccc2)c(C=C2Oc3cc(O)ccc3C2=O)c2ccccc21 [Example 7, 6-hydroxy-2-[(1-methyl-2-phenyl-1H-indol-3-yl)methylene]-1-benzofuran-3(2H)-one] | < 5.00
COc1cccc2c1OC(=Cc1c[nH]c3ccccc13)C2=O [Example 9, 2-(1H-indol-3-ylmethylene)-7-methoxy-1-benzofuran-3(2H)-one] | < 5.00
COc1cccc2c1OC(=Cc1c(-c3ccccc3)[nH]c3ccccc13)C2=O [Example 10, 7-methoxy-2-[(2-phenyl-1H-indol-3-yl)methylene]-1-benzofuran-3(2H)-one] | < 5.00
COc1cccc2c1OC(=Cc1c(-c3ccccc3)n(C)c3ccccc13)C2=O [Example 11, 7-methoxy-2-[(1-methyl-2-phenyl-1H-indol-3-yl)methylene]-1-benzofuran-3(2H)-one] | < 5.00
COc1cccc2c1OC(=Cc1cn(C)c3ccccc13)C2=O [Example 12, 7-methoxy-2-[(1-methyl-1H-indol-3-yl)methylene]-1-benzofuran-3(2H)-one] | < 5.00
Cc1[nH]c2ccc([N+](=O)[O-])cc2c1/C=C1\Oc2ccccc2C1=O [Example 20, (2Z)-2-[(2-methyl-5-nitro-1H-indol-3-yl)methylene]-1-benzofuran-3(2H)-one] | < 5.00
Cc1[nH]c2ccccc2c1/C=C1\Oc2ccccc2C1=O [Example 21, (2Z)-2-[(2-methyl-1H-indol-3-yl)methylene]-1-benzofuran-3(2H)-one] | < 5.00
Cc1ccc2c(/C=C3\Oc4ccccc4C3=O)c[nH]c2c1 [Example 22, (2Z)-2-[(6-methyl-1H-indol-3-yl)methylene]-1-benzofuran-3(2H)-one] | < 5.00
Cc1cccc2c(/C=C3\Oc4ccccc4C3=O)c[nH]c12 [Example 23, (2Z)-2-[(7-methyl-1H-indol-3-yl)methylene]-1-benzofuran-3(2H)-one] | < 5.00
O=C1/C(=C/c2c[nH]c3ccc(Br)cc23)Oc2ccccc21 [Example 24, (2Z)-2-[(5-bromo-1H-indol-3-yl)methylene]-1-benzofuran-3(2H)-one] | < 5.00
O=C1/C(=C/c2cn(Cc3ccccc3)c3ccccc23)Oc2ccccc21 [Example 25, (2Z)-2-[(1-benzyl-1H-indol-3-yl)methylene]-1-benzofuran-3(2H)-one] | < 5.00
Cc1[nH]c2ccc([N+](=O)[O-])cc2c1/C=C1\Oc2cc(O)ccc2C1=O [Example 29, (2Z)-6-hydroxy-2-[(2-methyl-5-nitro-1H-indol-3-yl)methylene]-1-benzofuran-3(2H)-one] | < 5.00
Cc1[nH]c2ccccc2c1/C=C1\Oc2cc(O)ccc2C1=O [Example 30, (2Z)-6-hydroxy-2-[(2-methyl-1H-indol-3-yl)methylene]-1-benzofuran-3(2H)-one] | 4.89
O=C1/C(=C/c2cn(Cc3ccccc3)c3ccccc23)Oc2cc(O)ccc21 [Example 33, (2Z)-2-[(1-benzyl-1H-indol-3-yl)methylene]-6-hydroxy-1-benzofuran-3(2H)-one] | < 5.00
COc1cccc2c1O/C(=C\c1c(-c3ccc4ccccc4c3)[nH]c3ccccc13)C2=O [Example 36, (2Z)-7-methoxy-2-{[2-(2-naphthyl)-1H-indol-3-yl]methylene}-1-benzofuran-3(2H)-one] | < 5.00
COc1cccc2c1O/C(=C\c1c(C)[nH]c3ccc([N+](=O)[O-])cc13)C2=O [Example 38, (2Z)-7-methoxy-2-[(2-methyl-5-nitro-1H-indol-3-yl)methylene]-1-benzofuran-3(2H)-one] | < 5.00
COc1cccc2c1O/C(=C\c1c(C)[nH]c3ccccc13)C2=O [Example 39, (2Z)-7-methoxy-2-[(2-methyl-1H-indol-3-yl)methylene]-1-benzofuran-3(2H)-one] | < 5.00
COc1cccc2c1O/C(=C\c1c[nH]c3cc(C)ccc13)C2=O [Example 40, (2Z)-7-methoxy-2-[(6-methyl-1H-indol-3-yl)methylene]-1-benzofuran-3(2H)-one] | < 5.00
COc1cccc2c1O/C(=C\c1cn(Cc3ccccc3)c3ccccc13)C2=O [Example 42, (2Z)-2-[(1-benzyl-1H-indol-3-yl)methylene]-7-methoxy-1-benzofuran-3(2H)-one] | < 5.00
COc1cccc2c1O/C(=C\c1c[nH]c3ccc(OCc4ccccc4)cc13)C2=O [Example 43, (2Z)-2-{[5-(benzyloxy)-1H-indol-3-yl]methylene}-7-methoxy-1-benzofuran-3(2H)-one] | < 5.00

Continued, values first:

pIC50 | Compound
5.02 | Cc1ccc2c(/C=C3\Oc4cc(O)ccc4C3=O)c[nH]c2c1 [Example 31, (2Z)-6-hydroxy-2-[(6-methyl-1H-indol-3-yl)methylene]-1-benzofuran-3(2H)-one]
5.19 | O=C1/C(=C/c2c[nH]c3ccc(Br)cc23)Oc2cc(O)ccc21 [Example 32, (2Z)-2-[(5-bromo-1H-indol-3-yl)methylene]-6-hydroxy-1-benzofuran-3(2H)-one]
5.26 | O=C1/C(=C/c2c(-c3ccc4ccccc4c3)[nH]c3ccccc23)Oc2cc(O)ccc21 [Example 27, (2Z)-6-hydroxy-2-{[2-(2-naphthyl)-1H-indol-3-yl]methylene}-1-benzofuran-3(2H)-one]
5.35 | Cn1cc(/C=C2\Oc3c(ccc(O)c3O)C2=O)c2ccccc21 [Example 57, (2Z)-6,7-dihydroxy-2-[(1-methyl-1H-indol-3-yl)methylene]-1-benzofuran-3(2H)-one]
5.42 | O=C1/C(=C/c2c(-c3ccc(Cl)cc3)[nH]c3ccccc23)Oc2cc(O)ccc21 [Example 26, (2Z)-2-{[2-(4-chlorophenyl)-1H-indol-3-yl]methylene}-6-hydroxy-1-benzofuran-3(2H)-one]
5.59 | O=C1/C(=C/c2c(-c3ccc4ccccc4c3)[nH]c3ccccc23)Oc2ccccc21 [Example 18, (2Z)-2-{[2-(2-naphthyl)-1H-indol-3-yl]methylene}-1-benzofuran-3(2H)-one]
5.60 | O=C1/C(=C/c2c(-c3ccc(Cl)cc3)[nH]c3ccccc23)Oc2ccccc21 [Example 17, (2Z)-2-{[2-(4-chlorophenyl)-1H-indol-3-yl]methylene}-1-benzofuran-3(2H)-one]
5.62 | O=C1/C(=C/c2c(-c3ccc(F)cc3)[nH]c3ccccc23)Oc2cc(O)ccc21 [Example 28, (2Z)-2-{[2-(4-fluorophenyl)-1H-indol-3-yl]methylene}-6-hydroxy-1-benzofuran-3(2H)-one]
5.63 | COc1cccc2c1O/C(=C\c1c(-c3ccc(F)cc3)[nH]c3ccccc13)C2=O [Example 37, (2Z)-2-{[2-(4-fluorophenyl)-1H-indol-3-yl]methylene}-7-methoxy-1-benzofuran-3(2H)-one]
5.70 | O=C1/C(=C/c2c(-c3ccc(F)cc3)[nH]c3ccccc23)Oc2ccccc21 [Example 19, (2Z)-2-{[2-(4-fluorophenyl)-1H-indol-3-yl]methylene}-1-benzofuran-3(2H)-one]
5.71 | COc1cccc2c1O/C(=C\c1c(-c3ccc(Cl)cc3)[nH]c3ccccc13)C2=O [Example 35, (2Z)-2-{[2-(4-chlorophenyl)-1H-indol-3-yl]methylene}-7-methoxy-1-benzofuran-3(2H)-one]
5.77 | O=C1/C(=C/c2c[nH]c3ccc(F)cc23)Oc2c1ccc(O)c2O [Example 64, (2Z)-2-[(5-fluoro-1H-indol-3-yl)methylene]-6,7-dihydroxy-1-benzofuran-3(2H)-one]
5.78 | COc1ccc2[nH]c(-c3ccccc3)c(C=C3Oc4cccc(O)c4C3=O)c2c1 [Example 79, 4-hydroxy-2-[(5-methoxy-2-phenyl-1H-indol-3-yl)methylene]-1-benzofuran-3(2H)-one]
5.80 | COc1ccc2c(c1)c(C=C1Oc3c(ccc(O)c3O)C1=O)c(C)n2CCCCN1CCN(C)CC1 [Example 144, 6,7-dihydroxy-2-({5-methoxy-2-methyl-1-[4-(4-methylpiperazin-1-yl)butyl]-1H-indol-3-yl}methylene)-1-benzofuran-3(2H)-one]
5.94 | COc1ccc2c(c1)c(C=C1Oc3c(ccc(O)c3O)C1=O)cn2C [Example 85, 6,7-dihydroxy-2-[(5-methoxy-1-methyl-1H-indol-3-yl)methylene]-1-benzofuran-3(2H)-one]
5.95 | Cc1cccc2c1c(/C=C1\Oc3cc(O)cc(O)c3C1=O)c(-c1ccccn1)n2C [Compound 477, (2Z)-2-[(1,4-dimethyl-2-pyridin-2-yl-1H-indol-3-yl)methylene]-4,6-dihydroxy-1-benzofuran-3(2H)-one]
6.23 | COc1cc(-c2ccncc2)c2c(c1)c(/C=C1\Oc3cc(O)ccc3C1=O)cn2CCCC#N [Compound 500, 4-{3-[(Z)-(6-hydroxy-3-oxo-1-benzofuran-2(3H)-ylidene)methyl]-5-methoxy-7-pyridin-4-yl-1H-indol-1-yl}butanenitrile]
6.44 | CN(c1ccccc1)c1cccc2c1c(/C=C1\Oc3cc(O)cc(O)c3C1=O)cn2C [Compound 542, (2Z)-4,6-dihydroxy-2-({1-methyl-4-[methyl(phenyl)amino]-1H-indol-3-yl}methylene)-1-benzofuran-3(2H)-one]
